In patent publication US8426408B2, “Pyrimidine inhibitors of kinases” (AbbVie Inc., priority 2009, dated 2013):
pIC50, pKi: −log10 of the molar value.

Columns and labels:
Aurora B = target: T1, Aurora B (Homo sapiens, UniProt Q96GD4); experiment: Aurora B enzyme inhibition (time-resolved fluorescence, histone H3 peptide); type: biochemical; settings: 1 mM ATP
T1 construct: Active Aurora B enzyme (recombinant residues 1-344)
How it was run: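 IC50s came from an exponential fit of inhibition against inhibitor concentration, with phosphorylation read as the 665/615 nm time-resolved fluorescence ratio after EDTA stop using Eu-anti-phospho-H3 and SA-APC. The 1 h reaction used Aurora B 1-344 plus GST-INCENP, biotin-histone H3 1-21 peptide and 1 mM ATP in pH 7.4 HEPES buffer.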

KDR [1] = target: T2, KDR (Homo sapiens, UniProt P35968); experiment: KDR HTRF in vitro kinase assay; type: biochemical; set-up: purified enzyme (His6-KDR 789-1354, MW 63 kD); His6 (N); settings: 1 mM ATP; read-out: KDR enzyme inhibition data (Ki)
How it was run: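 His6-KDR 789-1354 (7 ng/well) with 0.5 μM biotinylated peptide substrate and 1 mM ATP in HEPES pH 7.1, MgCl2/MnCl2, 60 min at room temperature. EDTA-quenched, detected by streptavidin-XL-665 plus Eu-kryptate anti-phosphotyrosine HTRF after 3 h; IC50 from 620/665 nm ratio.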
Target sequence in this assay (P35968 789-1354): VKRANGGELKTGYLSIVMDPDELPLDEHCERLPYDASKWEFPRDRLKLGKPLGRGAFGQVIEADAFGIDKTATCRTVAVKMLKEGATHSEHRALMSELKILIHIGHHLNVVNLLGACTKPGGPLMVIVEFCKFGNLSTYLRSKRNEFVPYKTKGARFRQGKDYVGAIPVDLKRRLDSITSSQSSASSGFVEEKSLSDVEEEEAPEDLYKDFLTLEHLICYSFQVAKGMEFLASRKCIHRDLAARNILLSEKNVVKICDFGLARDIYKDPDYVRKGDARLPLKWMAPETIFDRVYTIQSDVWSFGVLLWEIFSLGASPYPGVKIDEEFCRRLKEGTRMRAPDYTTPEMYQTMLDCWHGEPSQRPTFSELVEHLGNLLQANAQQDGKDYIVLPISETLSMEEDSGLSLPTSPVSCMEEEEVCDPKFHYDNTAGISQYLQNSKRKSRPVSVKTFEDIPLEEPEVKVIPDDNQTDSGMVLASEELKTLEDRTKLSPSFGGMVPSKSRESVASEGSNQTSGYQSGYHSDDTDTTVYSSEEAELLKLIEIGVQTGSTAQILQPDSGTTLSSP

NCI-H1299 cells = experiment: Induction of polyploidy in H1299; type: cell-based, Human; settings: NCI-H1299, 48 hours
Protocol: To determine the induction of polyploidy in H1299 cells, NCI-H1299 were seeded (4K/well) into 96-well culture plates (tissue culture grade, black, flat-clear bottom) and incubated overnight to produce cell-to-plate adherence. Inhibitors at varying concentrations were added into duplicate wells containing cells and culture media (RPMI 1640, 10% fetal calf serum) and incubated at 37 C for 48 hours. The plates were then washed with PBS and the adherent cells fixed by incubating with 3% formalin for 1 hour. After washing four times with PBS, the cells were then stained with Hoechst and subjected to fluorescent (360 i/460e) microscopic high content analysis to determine the effect of inhibitors on nuclear size. Polyploid cells (≧4N) were defined as those having nuclear area>750μ^2. Potency was expressed as the concentration of inhibitor necessary to induce polyploidy in 15% of cells (EC15) and was calculated from least squares analysis of the log dose-response.

Aurora A = target: T3, Aurora A (Homo sapiens, UniProt O14965); experiment: Aurora A enzyme inhibition (time-resolved fluorescence, STK substrate-2); type: biochemical; settings: 1 mM ATP
T3 sequence (O14965 1-403): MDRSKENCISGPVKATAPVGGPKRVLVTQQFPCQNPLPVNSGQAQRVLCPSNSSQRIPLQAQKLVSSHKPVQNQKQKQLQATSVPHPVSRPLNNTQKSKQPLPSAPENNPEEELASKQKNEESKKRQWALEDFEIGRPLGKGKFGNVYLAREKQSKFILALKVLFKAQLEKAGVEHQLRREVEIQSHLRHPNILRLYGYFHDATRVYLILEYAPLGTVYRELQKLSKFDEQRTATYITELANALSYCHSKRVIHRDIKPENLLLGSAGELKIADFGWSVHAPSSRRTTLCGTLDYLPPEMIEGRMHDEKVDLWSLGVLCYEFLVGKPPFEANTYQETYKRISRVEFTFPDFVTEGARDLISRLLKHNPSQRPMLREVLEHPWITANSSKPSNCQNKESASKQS
How it was run: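 Phosphorylation of biotinylated STK substrate-2 at 1 mM ATP, 1 h, Hepes buffer pH 7.4 (MgCl2, sodium orthovanadate, Triton X-100). After EDTA quench, 665/615 nm time-resolved fluorescence ratio read via europium anti-phospho antibody and SA-XL665; IC50 from exponential fit versus inhibitor concentration.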

KDR [2] = target: T2, KDR; experiment: KDR cellular assay (KDR receptor phosphorylation ELISA); type: cell-based; set-up: expressed in transfected cells; host or cells: 3T3 (embryonic mouse) cells; settings: KDR transfected 3T3 (embryonic mouse) cells, VEGF stimulated; read-out: IC50 inhibition of KDR phosphorylation
How it was run: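 Phospho-KDR measured by capture ELISA (anti-KDR coat, biotinylated detection, streptavidin-HRP, 450 nm) in lysates of KDR-expressing 3T3 mouse fibroblasts. Cells saw compound 20 min at 37° C before 10 min VEGF challenge (100 ng/ml solution); IC50 from non-linear regression of half-log dose series.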
Target sequence in this assay (P35968 20-1356): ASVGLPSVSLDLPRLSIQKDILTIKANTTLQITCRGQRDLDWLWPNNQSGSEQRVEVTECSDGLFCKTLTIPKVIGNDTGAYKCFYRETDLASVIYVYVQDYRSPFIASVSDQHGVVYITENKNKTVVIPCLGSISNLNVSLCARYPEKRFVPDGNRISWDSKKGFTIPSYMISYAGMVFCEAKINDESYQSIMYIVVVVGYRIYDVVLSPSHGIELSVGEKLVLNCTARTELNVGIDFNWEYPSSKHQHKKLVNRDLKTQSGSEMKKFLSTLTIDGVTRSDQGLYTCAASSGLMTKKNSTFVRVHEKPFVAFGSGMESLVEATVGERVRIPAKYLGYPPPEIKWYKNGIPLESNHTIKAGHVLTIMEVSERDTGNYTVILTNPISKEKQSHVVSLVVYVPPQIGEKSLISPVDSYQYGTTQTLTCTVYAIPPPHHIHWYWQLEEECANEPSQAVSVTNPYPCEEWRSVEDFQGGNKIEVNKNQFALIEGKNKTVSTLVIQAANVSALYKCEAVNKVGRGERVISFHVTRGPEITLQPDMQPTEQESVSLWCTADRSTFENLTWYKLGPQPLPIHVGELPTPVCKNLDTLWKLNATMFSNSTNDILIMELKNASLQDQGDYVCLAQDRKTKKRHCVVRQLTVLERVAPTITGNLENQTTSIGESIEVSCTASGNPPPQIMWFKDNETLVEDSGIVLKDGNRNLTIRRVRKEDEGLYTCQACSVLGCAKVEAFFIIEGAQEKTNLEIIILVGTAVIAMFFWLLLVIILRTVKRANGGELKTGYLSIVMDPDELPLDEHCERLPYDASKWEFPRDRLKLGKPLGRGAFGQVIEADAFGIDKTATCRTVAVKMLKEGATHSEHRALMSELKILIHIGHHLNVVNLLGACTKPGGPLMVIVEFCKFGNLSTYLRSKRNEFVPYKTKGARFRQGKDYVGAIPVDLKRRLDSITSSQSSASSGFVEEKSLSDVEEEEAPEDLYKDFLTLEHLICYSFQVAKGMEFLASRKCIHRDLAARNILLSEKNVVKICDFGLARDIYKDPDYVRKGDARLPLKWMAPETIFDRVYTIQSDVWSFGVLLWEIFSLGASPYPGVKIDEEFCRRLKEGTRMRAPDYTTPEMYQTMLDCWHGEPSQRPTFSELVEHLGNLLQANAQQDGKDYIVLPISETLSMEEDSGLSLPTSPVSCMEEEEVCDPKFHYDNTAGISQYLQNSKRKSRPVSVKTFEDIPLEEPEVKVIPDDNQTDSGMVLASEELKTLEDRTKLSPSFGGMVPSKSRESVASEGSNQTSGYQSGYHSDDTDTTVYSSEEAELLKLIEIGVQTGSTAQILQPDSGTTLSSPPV

T1 sequence (Q96GD4 whole entry, the tested form may be a part): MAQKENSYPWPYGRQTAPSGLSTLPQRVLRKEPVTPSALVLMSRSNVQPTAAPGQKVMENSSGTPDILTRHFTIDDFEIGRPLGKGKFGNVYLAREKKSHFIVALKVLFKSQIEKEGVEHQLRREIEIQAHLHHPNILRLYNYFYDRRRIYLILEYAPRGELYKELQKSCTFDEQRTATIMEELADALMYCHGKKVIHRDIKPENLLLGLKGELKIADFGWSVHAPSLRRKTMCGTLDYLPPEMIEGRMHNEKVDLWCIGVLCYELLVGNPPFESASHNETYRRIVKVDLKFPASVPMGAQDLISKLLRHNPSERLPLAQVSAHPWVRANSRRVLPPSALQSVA
T1 sequence (Q9NQS7 826-918 partner limits assumed): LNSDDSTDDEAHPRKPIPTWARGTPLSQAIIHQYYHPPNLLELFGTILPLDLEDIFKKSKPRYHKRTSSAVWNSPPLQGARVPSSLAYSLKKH

Row | Compound | pKi (Aurora B) | pKi (KDR [1]) | EC15 (concentration of inhibitor necessary to induce polyploidy in 15% of cells) (NCI-H1299 cells) | pKi (Aurora A) | EC15 (NCI-H1299 cells; Homo sapiens, read-out: EC15 (concentration of inhibitor necessary to induce polyploidy in 15% of cells)) | pIC50 (KDR [2])
1 | NC(=O)[C@@H]1[C@H]2CC[C@H](C2)[C@@H]1Nc1nc(Nc2cnn(CCO)c2)ncc1F.NC(=O)[C@H]1[C@@H]2CC[C@@H](C2)[C@H]1Nc1nc(Nc2cnn(CCO)c2)ncc1F (mixture of isomers) [Example 14, (1R,2S,3R,4S)-3-[(5-fluoro-2-{[1-(2-hydroxyethyl)-1H-pyrazol-4-yl]amino}pyrimidin-4-yl)amino]bicyclo[2.2.1]heptane-2-carboxamide and (1S,2R,3S,4R)-3-[(5-fluoro-2-{[1-(2-hydroxyethyl)-1H-pyrazol-4-yl]amino}pyrimidin-4-yl)amino]bicyclo[2.2.1]heptane-2-carboxamide] | > 7.00 | 5.30 to 6.00 | B (“B” represents an EC15 of between 0.1 μM and 1 μM) | 6.00 to 7.00 |  | 
2 | (1S,2S,3R,4R)-3-({5-fluoro-2-[(1-methyl-1H-pyrazol-4-yl)amino]pyrimidin-4-yl}amino)bicyclo[2.2.1]hept-5-ene-2-carboxamide and (1R,2R,3S,4S)-3-({5-fluoro-2-[(1-methyl-1H-pyrazol-4-yl)amino]pyrimidin-4-yl}amino)bicyclo[2.2.1]hept-5-ene-2-carboxamide [Example 1] | > 7.00 | 6.00 to 7.00 | B (“B” represents an EC15 of between 0.1 μM and 1 μM) | > 7.00 |  | 
3 | NC(=O)[C@@H]1[C@H](Nc2nc(Nc3cn[nH]c3)ncc2F)[C@H]2C=C[C@@H]1C2.NC(=O)[C@H]1[C@@H](Nc2nc(Nc3cn[nH]c3)ncc2F)[C@@H]2C=C[C@H]1C2 (mixture of isomers) [Example 5, (1S,2S,3R,4R)-3-{[5-fluoro-2-(1H-pyrazol-4-ylamino)pyrimidin-4-yl]amino}bicyclo[2.2.1]hept-5-ene-2-carboxamide and (1R,2R,3S,4S)-3-{[5-fluoro-2-(1H-pyrazol-4-ylamino)pyrimidin-4-yl]amino}bicyclo[2.2.1]hept-5-ene-2-carboxamide] | > 7.00 | 6.00 to 7.00 | B (“B” represents an EC15 of between 0.1 μM and 1 μM) | 6.00 to 7.00 |  | 
4 | CCn1cc(Nc2ncc(F)c(N[C@@H]3[C@H]4CC[C@H](C4)[C@@H]3C(N)=O)n2)cn1.CCn1cc(Nc2ncc(F)c(N[C@H]3[C@@H]4CC[C@@H](C4)[C@H]3C(N)=O)n2)cn1 (mixture of isomers) [Example 13, (1R,2S,3R,4S)-3-({2-[(1-ethyl-1H-pyrazol-4-yl)amino]-5-fluoropyrimidin-4-yl}amino)bicyclo[2.2.1]heptane-2-carboxamide and (1S,2R,3S,4R)-3-({2-[(1-ethyl-1H-pyrazol-4-yl)amino]-5-fluoropyrimidin-4-yl}amino)bicyclo[2.2.1]heptane-2-carboxamide] | > 7.00 | 6.00 to 7.00 | B (“B” represents an EC15 of between 0.1 μM and 1 μM) | > 7.00 |  | 
5 | Cn1cc(Nc2ncc(C(F)(F)F)c(N[C@@H]3C[C@H]4CC[C@@H]3C4)n2)cn1.Cn1cc(Nc2ncc(C(F)(F)F)c(N[C@H]3C[C@@H]4CC[C@H]3C4)n2)cn1 (mixture of isomers) [Example 23, N^4-[(1S,2S,4R)-bicyclo[2.2.1]hept-2-yl]-N^2-(1-methyl-1H-pyrazol-4-yl)-5-(trifluoromethyl)pyrimidine-2,4-diamine and N^4-[(1R,2R,4S)-bicyclo[2.2.1]hept-2-yl]-N^2-(1-methyl-1H-pyrazol-4-yl)-5-(trifluoromethyl)pyrimidine-2,4-diamine] | > 7.00 | 6.00 to 7.00 | B (“B” represents an EC15 of between 0.1 μM and 1 μM) | 6.00 to 7.00 |  | 
6 | Cn1cc(Nc2nccc(NC3C4C=CC(C4)C3C(N)=O)n2)cn1 (mixture of isomers) [Example 2, (1S,2S,3R,4R)-3-({2-[(1-methyl-1H-pyrazol-4-yl)amino]pyrimidin-4-yl}amino)bicyclo[2.2.1]hept-5-ene-2-carboxamide and (1R,2R,3S,4S)-3-({2-[(1-methyl-1H-pyrazol-4-yl)amino]pyrimidin-4-yl}amino)bicyclo[2.2.1]hept-5-ene-2-carboxamide] | 6.00 to 7.00 | < 5.30 |  | 5.30 to 6.00 | < 100 nM | 
7 | Cn1cc(Nc2ncc(Cl)c(N[C@@H]3[C@H](C(N)=O)[C@@H]4C=C[C@H]3C4)n2)cn1.Cn1cc(Nc2ncc(Cl)c(N[C@H]3[C@@H](C(N)=O)[C@H]4C=C[C@@H]3C4)n2)cn1 (mixture of isomers) [Example 120, (1S,2R,3S,4R)-3-({5-chloro-2-[(1-methyl-1H-pyrazol-4-yl)amino]pyrimidin-4-yl}amino)bicyclo[2.2.1]hept-5-ene-2-carboxamide and (1R,2S,3R,4S)-3-({5-chloro-2-[(1-methyl-1H-pyrazol-4-yl)amino]pyrimidin-4-yl}amino)bicyclo[2.2.1]hept-5-ene-2-carboxamide] | > 7.00 | > 7.00 | B (“B” represents an EC15 of between 0.1 μM and 1 μM) | > 7.00 |  | 
8 | Cn1cc(Nc2ncc(Cl)c(Nc3ccccc3CO)n2)cn1 [Example 145, [2-({5-chloro-2-[(1-methyl-1H-pyrazol-4-yl)amino]pyrimidin-4-yl}amino)phenyl]methanol] | > 7.00 | > 7.00 |  | > 7.00 |  | 6.00 to 7.00
9 | CC1(C)[C@H]2C[C@H](C(N)=O)[C@H](Nc3nc(Nc4cnn(C5CCNCC5)c4)ncc3Cl)[C@@H]1C2 [Example 191, (1R,2R,3S,5R)-2-[(5-chloro-2-{[1-(piperidin-4-yl)-1H-pyrazol-4-yl]amino}pyrimidin-4-yl)amino]-6,6-dimethylbicyclo[3.1.1]heptane-3-carboxamide] | > 7.00 | > 7.00 |  | > 7.00 |  | 6.00 to 7.00
10 | 5-chloro-N^2-(1H-indazol-5-yl)-N^2-{1-[(3R)-pyrrolidin-3-yl]-1H-pyrazol-4-yl}pyrimidine-2,4-diamine [Example 181] | > 7.00 | > 7.00 |  | > 7.00 |  | 6.00 to 7.00
11 | CCn1cc(Nc2ncc(Cl)c(N[C@H]3[C@@H](C(N)=O)C[C@H]4C[C@@H]3C4(C)C)n2)cn1 [Example 166, (1R,2R,3S,5R)-2-({5-chloro-2-[(1-ethyl-1H-pyrazol-4-yl)amino]pyrimidin-4-yl}amino)-6,6-dimethylbicyclo[3.1.1]heptane-3-carboxamide] | > 7.00 | > 7.00 |  | > 7.00 |  | 6.00 to 7.00
12 | Cn1cc(Nc2ncc(Cl)c(N[C@@H]3[C@H](C(N)=O)[C@H]4C=C[C@@H]3C4)n2)cn1.Cn1cc(Nc2ncc(Cl)c(N[C@H]3[C@@H](C(N)=O)[C@@H]4C=C[C@H]3C4)n2)cn1 (mixture of isomers) [Example 27, (1S,2S,3R,4R)-3-({5-chloro-2-[(1-methyl-1H-pyrazol-4-yl)amino]pyrimidin-4-yl}amino)bicyclo[2.2.1]hept-5-ene-2-carboxamide and (1R,2R,3S,4S)-3-({5-chloro-2-[(1-methyl-1H-pyrazol-4-yl)amino]pyrimidin-4-yl}amino)bicyclo[2.2.1]hept-5-ene-2-carboxamide] | > 7.00 | > 7.00 |  | > 7.00 |  | > 7.00
